Source: ChEMBL document CHEMBL1817597, “Antifungal thiopeptide cyclothiazomycin B1 exhibits growth inhibition accompanying morphological changes via binding to fungal cell wall chitin” (Bioorg Med Chem, 2011)
In brackets after ≈: the same amount, converted by molar mass. Activity calls are given as the source filed them. The rule behind the calls is not given here.

How the values were obtained:
Micrococcus luteus = test: Antimicrobial activity against Micrococcus luteus IFO 3333 after 24 hrs by broth microdilution method; assay type: functional, organism-based
Pseudomonas aeruginosa = test: Antimicrobial activity against Pseudomonas aeruginosa IFO 3080 after 24 hrs by broth microdilution method; assay type: functional, organism-based
Bacillus licheniformis = test: Antimicrobial activity against Bacillus licheniformis IFO 12107 after 24 hrs by broth microdilution method; assay type: functional, organism-based
Saccharomyces cerevisiae [1] = test: Antimicrobial activity against Saccharomyces cerevisiae IFO 0203 after 24 hrs by broth microdilution method; assay type: functional, organism-based
Saccharomyces cerevisiae [2] = test: Antimicrobial activity against Saccharomyces cerevisiae ATCC 7754 after 24 hrs by broth microdilution method; assay type: functional, organism-based
[3] = system: Schizosaccharomyces pombe; test: Antimicrobial activity against Schizosaccharomyces pombe IFO 0342 after 24 hrs by broth microdilution method; assay type: functional, organism-based
Rhodotorula mucilaginosa = test: Antimicrobial activity against Rhodotorula mucilaginosa IFO 0001 after 24 hrs by broth microdilution method; assay type: functional, organism-based
Fusarium oxysporum [4] = test: Antimicrobial activity against Fusarium oxysporum NBRC 5942 after 24 hrs by broth microdilution method; assay type: functional; settings: NBRC 5942, 24 h
Fusarium oxysporum [5] = test: Antimicrobial activity against Fusarium oxysporum NBRC 30700 after 24 hrs by broth microdilution method; assay type: functional; settings: NBRC 30700, 24 h
Aspergillus nidulans = test: Antimicrobial activity against Aspergillus nidulans FGSC A4 after 24 hrs by broth microdilution method; assay type: functional; settings: FGSC A4, 24 h
Mucor mucedo [6] = test: Antimicrobial activity against Mucor mucedo IFO 7684 at <6.55 uM after 24 hrs by broth microdilution method; assay type: functional, organism-based
Fusarium oxysporum [7] = test: Antimicrobial activity against Fusarium oxysporum IFO 7152 at <6.55 uM after 24 hrs by broth microdilution method; assay type: functional, organism-based
Fusarium solani = test: Antimicrobial activity against Fusarium solani NBRC 8505 at <6.55 uM after 24 hrs by broth microdilution method; assay type: functional, organism-based
Fusarium avenaceum = test: Antimicrobial activity against Fusarium avenaceum NBRC 33237 at <6.55 uM after 24 hrs by broth microdilution method; assay type: functional, organism-based
Aspergillus fumigatus = test: Antimicrobial activity against Aspergillus fumigatus IFO 5840 at <6.55 uM after 24 hrs by broth microdilution method; assay type: functional, organism-based
Neurospora sitophila = test: Antimicrobial activity against Neurospora sitophila DSM 1130 at <6.55 uM after 24 hrs by broth microdilution method; assay type: functional
Rhizopus arrhizus = test: Antimicrobial activity against Rhizopus oryzae IFO 4766 at <6.55 uM after 24 hrs by broth microdilution method; assay type: functional, organism-based
Fusarium oxysporum [8] = test: Induction of morphological changes in Fusarium oxysporum NBRC 5942 assessed as thickening of hyphae at MIC after 24 hrs by microscopic analysis; assay type: functional, organism-based
Mucor mucedo [9] = test: Induction of morphological changes in Mucor mucedo IFO 7684 assessed as swelling of hyphae at tips at MIC after 24 hrs by microscopic analysis; assay type: functional, organism-based
Mucor mucedo [10] = test: Antifungal activity against Mucor mucedo IFO 7684 under hyperosmotic shock at 0.026 uM after 2 days by paper disc method; assay type: functional, organism-based
Mucor mucedo [11] = test: Inhibition of RNA synthesis in Mucor mucedo IFO 7684 assessed as [8-14C]-adenine uptake into acid-insoluble fractions at 0.13 uM after 25 mins by liquid scintillation counting; assay type: functional, organism-based
Mucor mucedo [12] = test: Inhibition of total protein synthesis in Mucor mucedo IFO 7684 assessed as [U-14C]-leucine uptake into acid-insoluble fractions at 0.13 uM after 25 mins by liquid scintillation counting relative to control; assay type: functional; settings: IFO 7684, 25 min
[13] = Binding affinity to chitin at 6.55 uM after 30 mins by HPLC analysis
Mucor mucedo [14] = test: Inhibition of chitin synthase in germinated Mucor mucedo IFO 7684 assessed as incorporation of GlcNAc from [14C]-UDP-GlcNAc into acid-insoluble fractions at 2.61 uM after 60 mins by liquid scintillation counting relative to control
[15] = Binding affinity to chemically deacetylated chitin at 6.55 uM after 30 mins by HPLC analysis
Mucor mucedo [16] = test: Binding affinity to cell wall polysaccharides in Mucor mucedo IFO 7684 at 6.55 uM after 30 mins by HPLC analysis
Fusarium oxysporum [17] = test: Binding affinity to cell wall polysaccharides in Fusarium oxysporum NBRC 5942 at 6.55 uM after 30 mins by HPLC analysis
Mucor mucedo [18] = test: Antimicrobial activity against Mucor mucedo IFO 7684 after 24 hrs by broth microdilution method in presence of 100 uM of PKA inhibitor H8; assay type: functional; settings: IFO 7684, 24 h
Mucor mucedo [19] = test: Induction of morphological changes in Mucor mucedo IFO 7684 assessed as thickening of hyphae at 0.026 uM after 24 hrs by microscopic analysis in presence of 100 uM of PKA inhibitor H8; assay type: functional, organism-based
Mucor mucedo [20] = test: Induction of morphological changes in Mucor mucedo IFO 7684 assessed as thickening of hyphae at 0.026 uM after 24 hrs by microscopic analysis in presence of 100 uM of PKA activator dbcAMP; assay type: functional, organism-based

C=C1NC(=O)[C@H]2CSC(=N2)c2csc(n2)-c2ccc3c(n2)[C@H](C)NC(=O)[C@@H]2CCCN2C(=O)/C(=C/C)NC(=O)CNC(=O)[C@H](CCCNC(=N)N)NC(=O)C(C)(NC(=O)/C(=C/C)NC(=O)C2CSC(=N2)[C@H](CC(N)=O)NC3=O)SC[C@@H](C(=O)O)NC(=O)[C@H]2CSC(=N2)c2csc(n2)-c2csc1n2 [CYCLOTHIAZOMYCIN B1]
Activity (Micrococcus luteus): inactive
Activity (Pseudomonas aeruginosa): inactive
Activity (Bacillus licheniformis): inactive
Activity (Saccharomyces cerevisiae [1]): inactive
Activity (Saccharomyces cerevisiae [2]): inactive
Activity [3]: inactive
Activity (Rhodotorula mucilaginosa): inactive
MIC (Fusarium oxysporum [4]): 0.5 µg/mL (≈ 0.327 µM)
MIC (Fusarium oxysporum [5]): 0.25 µg/mL (≈ 0.164 µM)
MIC (Aspergillus nidulans): > 1000 µg/mL
Activity (Mucor mucedo [6]): inactive
Activity (Fusarium oxysporum [7]): inactive
Activity (Fusarium solani): inactive
Activity (Fusarium avenaceum): inactive
Activity (Aspergillus fumigatus): inactive
Activity (Neurospora sitophila): inactive
Activity (Rhizopus arrhizus): inactive
Activity (Fusarium oxysporum [8]): Active
Activity (Mucor mucedo [9]): Active
Activity (Mucor mucedo [10]): inactive
inhibition (Mucor mucedo [11]): inactive
inhibition at 0.13 µM (Mucor mucedo [12]): 37%
Activity [13]: Active
inhibition (Mucor mucedo [14]): 64%
Activity [15]: inactive
Activity (Mucor mucedo [16]): inactive
Activity (Fusarium oxysporum [17]): inactive
MIC (Mucor mucedo [18]): 0.013 µM
Activity (Mucor mucedo [19]): Active
Activity (Mucor mucedo [20]): Active
